Here are results for one compound from patent publication US20100125085A1, “PYRIDOINDOLE MODULATORS OF NMDA RECEPTOR AND ACETYLCHOLINESTERASE” (AUSPEX PHARMACEUTICALS, INC., priority 2008, published 2010).

Molecules are shown by their SMILES.

For series [1] the following is noted: cited from earlier work.
A short description of series [2]: sites of metabolism of dimebolin in humans. The following applies: discoveries made in our laboratory and literature. Type of series: in vivo.

On to `Cc1ccc2c(c1)c1c(n2CCc2ccc(C)nc2)CCN(C)C1` [dimebolin, 2,8-dimethyl-5-[2-(6-methyl-pyridin-3-yl)-ethyl]-2,3,4,5-tetrahydro-1H-pyrido[4,3-b]indole], for which, in series [1] (>5% of patients and at least twice the incidence of placebo), the common adverse events result was “dry mouth, depressed mood/depression, and hyperhidrosis”. For the same compound, the “patients reporting at least 1 serious adverse effect” value in series [1] (double-blind study, dimebolin group) is reported as 3%. Besides, the “patients reporting at least 1 adverse effect” value in series [1] (double-blind study, patients taking dimebolin) is 79%. Besides, the sites of metabolism result in series [2] is “metabolized in humans at the pyridyl methyl group, the tolyl methyl group, the ethylene linker, and the N-methyl group”.
